Measured values: patent publication US6737058B2, “Methods for inhibiting endothelial cell and fibrinogen mediated inflammation using fibrinogen specific antibodies” (The Scripps Research Institute, priority 1992, dated 2004)

Key:
[1] = system: TNF or LPS-stimulated HUVEC; test: 125I-labelled fibrinogen binding to TNF- or LPS-stimulated HUVEC; set-up: species or system human; details: TNF 5 ng/ml or LPS 1.0 μg/ml, 4 hours at 37° C.
Protocol: To determine the effect that known stimulators of HUVEC have on the binding characteristics of fibrinogen to HUVEC, dose-response experiments were performed as described in Example 3A2) on untreated HUVEC and TNF or lipopolysaccharide (LPS, Genzyme))-stimulated HUVEC. TNF and LPS were separately admixed at the respective concentrations of 5 nanograms (ng)/ml and 1.0 μg/ml to monolayers of HUVEC and maintained at 37° C. for 4 hours prior to the admixture of the labelled fibrinogen ranging in concentration from 0.01 μM up to 0.36 μM.

[2] = system: bovine aortic endothelial cells (BAE); test: Fibrinogen-mediated adhesion of 51Cr-labelled THP-1 cells to bovine aortic endothelial cells; type: cell-based; details: 500 μg/ml fibrinogen
Protocol: Cell adhesion binding assays described above were performed on bovine aortic endothelial cells (BAE) to determine if fibrinogen could mediate the binding of ^51Cr-labelled THP-1 cells to endothelial cells from a different source. Cell cultures were prepared from bovine aorta following procedures known to one skilled in the art. THP-1 cells were either left untreated or treated with 500 μg/ml fibrinogen over a 60 minute time course. At selected time points, the cells were harvested as described in Example 3B1) and the number of attached THP-1 cells were determined as previously described. […] However, in the presence of fibrinogen, approximately 20,000 cells bound to BAE cells after a 40 minute maintenance period. This maximum binding dropped off at 60 minutes to approximately 15,000 attached cells. Binding of THP-1 cells to HUVEC was done in parallel as a control for the experiment; the non-saturable binding of THP-1 cells in the presence of fibrinogen was maximal at 60 minutes with approximately 25,000 cells attached. Thus, fibrinogen mediates the binding of THP-1 cells not only to human endothelial cells but also to bovine-derived endothelial cells.

[3] = system: HUVEC; test: Adhesion of terminally-differentiated 51Cr-labeled HL-60 cells to resting HUVEC with plasma adhesive proteins; type: cell-based, human; details: 150 μ/ml protein, fMLP 10 μM, 30 min at 22° C.
Protocol: The effect of fibrinogen, vitronectin, and fibronectin on the interaction of terminally-differentiated HL-60 and monocytic THP-1 cells with HUVEC was determined as described in Languino, supra. Briefly, serum-free suspensions of HL-60 or THP-1 cells were labeled with ^51Cr as described in Example 81A to a final incorporation of 0.2-4 cpm/cell. After washes in PBS, pH 7.2, aliquots of the HL-60 cells were resuspended in serum-free RPMI 1640 at 1.5×10^6/ml and stimulated with 10 μM of the chemoattractant formyl-methionyl-leucyl-phenylalanine (fMLP, Sigma, St. Louis, Mo.) and equilibrated with 150 μ/ml fibrinogen, vitronectin, or fibronectin in the presence of 1 mM CaCl2 for 20 min at 22° C. Equilibrated HL-60 were added to resting HUVEC monolayers that had been previously incubated with fresh complete culture medium 12 hours prior to the experiment and incubated for an additional 30 min at 22° C., washed,solubilized in 10-20% SDS, and associated radioactivity determined in a scintillation β-counter. The number of attached cells was quantitated by diving the cpm harvested by the cpm/cell. Under these experimental conditions, there was no aggregation of the various leukocyte subpopulations in the presence of the different plasma adhesive proteins, nor disruption of the HUVEC monolayers at any time interval tested, as judged by routine microscopic examination of the adhesion field. Data are the mean ± S.D. of triplicates from a representative experiment.
Experimental conditions were the same as described in Example 9C1 except that the ^51Cr-labeled HL-60 cells were equilibrated with 40 μg/ml vitronectin or control protein transferrin and added to resting HUVEC for increasing time intervals between 10 and 60 minutes at 22° C. before measurement of leukocyte adhesion.
Experimental conditions were the same as described in Example 9C1 except that the ^51Cr-labeled HL-60 cells were equilibrated with several concentrations of vitronectin ranging from 1.84 to 150 μg/ml and prior to incubation to resting HUVEC.

Substance: fibrinogen: fibrinogen isolated from fresh plasma by cold ethanol fractionation, fibronectin-free
- labelled fibrinogen molecules bound per cell in comparison to unstimulated cells [1]: doubled
- THP-1 cells bound to BAE cells ([2]; 40 minutes): approximately 20,000 cells
- THP-1 cells bound to BAE cells ([2]; 60 minutes): approximately 15,000 cells
- adhesion of differentiated HL-60 cells to HUVEC relative to cells not equilibrated with an adhesive protein [3]: two to three-fold higher
